Read-outs that look alike come from different tables or passages of the source.
Key:
[1] = test system: Pseudomonas aeruginosa; assay: MIC by agar dilution against 61 strains of Pseudomonas aeruginosa, secondary evaluation; format: cell-based; conditions: Pseudomonas aeruginosa, read-out: MIC
Procedure: (§1) Minimum inhibitory concentrations (MIC) of BB-S520 were determined by serial two-fold agar dilution method using Steers' apparatus on Meuller-Hinton agar plate against 31 test organisms for the primary screening and also against 61 strains of Pseudomonas aeruginosa for the secondary evaluation. The results are shown in Table 1 and Table 2 along with those of BB-S514 and sulbenicillin.
(§2) Minimum inhibitory concentrations (MIC) of cephalosporins in the present study were determined by serial two-fold agar dilution method using Steers' apparatus on Mueller-Hinton agar plate against 31 test organisms for the primary screening and also against 61 strains of Pseudomonas aeruginosa for the secondary evaluation.

[2] = Mouse blood levels after subcutaneous injection; format: in vivo; conditions: in vivo, sc
Text: |Mouse Blood Levels | Blood Levels in Mcg./Ml. at | Indicated Hours After Subcu- |Dose in taneous Injection

[3] = test system: P. mirabilis; assay: MIC by serial two-fold agar dilution (Mueller-Hinton agar), P. mirabilis; format: cell-based; conditions: Proteus mirabilis; P. mirabilis, Table 1; read-out: MIC
Procedure: as §1, §2

[4] = test system: Gram-negative (19 strains); assay: Mean % relative activity (MIC) vs sulbenicillin, Gram-negative (19 strains); format: cell-based; conditions: for Mean % Relative Activity (SPBC = 100%): G (-) (19 strains)
Procedure: as §1, §2

## NC(=O)OCC1=C(C(=O)O)N2C(=O)C(NC(=O)[C@H](NC(=O)c3cnc4cccnc4c3O)c3ccccc3)[C@H]2SC1 (stereo partly drawn) [BB-S520, Sodium 7-[D-α-(4-hydroxy-1,5-naphthyridine-3-carboxamido)-α-phenylacetamido]-3-carbamoyloxymethyl-3-cephem-4-carboxylate]
[1]; BBRI Pa-No. 34, Table 2
  MIC: 3.1 mg/L
[1]; BBRI Pa-No. 34, Table 7
  MIC: 1.6 mg/L
[1]; BBRI Pa-No. 35, Table 2
  MIC: 12.5 mg/L
[1]; BBRI Pa-No. 35, Table 7
  MIC: 6.3 mg/L
[1]; BBRI Pa-No. 36, Table 2
  MIC: 0.4 mg/L
[1]; BBRI Pa-No. 36, Table 7
  MIC: < 0.2 mg/L
[1]; BBRI Pa-No. 37, Table 2
  MIC: 3.1 mg/L
[1]; BBRI Pa-No. 37, Table 7
  MIC: 3.1 mg/L
[1]; BBRI Pa-No. 38, Table 2
  MIC: 6.3 mg/L
[1]; BBRI Pa-No. 38, Table 7
  MIC: 6.3 mg/L
[1]; BBRI Pa-No. 39, Table 2
  MIC: 3.1 mg/L
[1]; BBRI Pa-No. 39, Table 7
  MIC: 1.6 mg/L
[1]; BBRI Pa-No. 41, Table 2
  MIC: 3.1 mg/L
[1]; BBRI Pa-No. 41, Table 7
  MIC: 3.1 mg/L
[1]; BBRI Pa-No. 42, Table 2
  MIC: 6.3 mg/L
[1]; BBRI Pa-No. 42, Table 7
  MIC: 1.6 mg/L
[1]; BBRI Pa-No. 43, Table 2
  MIC: 6.3 mg/L
[1]; BBRI Pa-No. 43, Table 7
  MIC: 3.1 mg/L
[1]; BBRI Pa-No. 44 (unnamed strain), Table 7
  MIC: 3.1 mg/L
[1]; BBRI Pa-No. 44, Table 2
  MIC: 6.3 mg/L
[1]; BBRI Pa-No. 51, Table 2
  MIC: 3.1 mg/L
[1]; BBRI Pa-No. 51, Table 7
  MIC: 1.6 mg/L
[1]; BBRI Pa-No. 52, Table 2
  MIC: 3.1 mg/L
[1]; BBRI Pa-No. 52, Table 7
  MIC: 3.1 mg/L
[1]; BBRI Pa-No. 53, Table 2
  MIC: 3.1 mg/L
[1]; BBRI Pa-No. 53, Table 7
  MIC: 1.6 mg/L
[1]; BBRI Pa-No. 54, Table 2
  MIC: 3.1 mg/L
[1]; BBRI Pa-No. 54, Table 7
  MIC: 1.6 mg/L
[1]; BBRI Pa-No. 55, Table 2
  MIC: 3.1 mg/L
[1]; BBRI Pa-No. 55, Table 7
  MIC: 3.1 mg/L
[1]; BBRI Pa-No. 56, Table 2
  MIC: 3.1 mg/L
[1]; BBRI Pa-No. 56, Table 7
  MIC: 3.1 mg/L
[1]; BBRI Pa-No. 57, Table 2
  MIC: 3.1 mg/L
[1]; BBRI Pa-No. 57, Table 7
  MIC: 1.6 mg/L
[1]; BBRI Pa-No. 58, Table 2
  MIC: 6.3 mg/L
[1]; BBRI Pa-No. 58, Table 7
  MIC: 3.1 mg/L
[1]; BBRI Pa-No. 59, Table 2
  MIC: 6.3 mg/L
[1]; BBRI Pa-No. 59, Table 7
  MIC: 1.6 mg/L
[1]; BBRI Pa-No. 60, Table 2
  MIC: 3.1 mg/L
[1]; BBRI Pa-No. 60, Table 7
  MIC: 1.6 mg/L
[1]; BBRI Pa-No. 61, Table 2
  MIC: 6.3 mg/L
[1]; BBRI Pa-No. 61, Table 7
  MIC: 1.6 mg/L
[1]; BBRI Pa-No. 62, Table 2
  MIC: 6.3 mg/L
[1]; BBRI Pa-No. 62, Table 7
  MIC: 50 mg/L
[1]; BBRI Pa-No. 64, Table 2
  MIC: 3.1 mg/L
[1]; BBRI Pa-No. 64, Table 7
  MIC: 3.1 mg/L
[1]; BBRI Pa-No. 65, Table 2
  MIC: 3.1 mg/L
[1]; BBRI Pa-No. 65, Table 7
  MIC: 1.6 mg/L
[1]; BBRI Pa-No. 66, Table 2
  MIC: 3.1 mg/L
[1]; BBRI Pa-No. 66, Table 7
  MIC: 1.6 mg/L
[1]; BBRI Pa-No. 67, Table 2
  MIC: 6.3 mg/L
[1]; BBRI Pa-No. 67, Table 7
  MIC: 3.1 mg/L
[1]; BBRI Pa-No. 68, Table 2
  MIC: 6.3 mg/L
[1]; BBRI Pa-No. 68, Table 7
  MIC: 3.1 mg/L
[1]; BBRI Pa-No. 69, Table 2
  MIC: 12.5 mg/L
[1]; BBRI Pa-No. 69, Table 7
  MIC: 6.3 mg/L
[1]; BBRI Pa-No. 70, K-Ps102 (CR-102), Table 2
  MIC: 3.1 mg/L
[1]; BBRI Pa-No. 70, K-Ps102(CR-102), Table 7
  MIC: 1.6 mg/L
[1]; GN315, BBRI Pa-No. 27, GN315, Table 2
  MIC: 3.1 mg/L
[1]; GN315, BBRI Pa-No. 27, GN315, Table 7
  MIC: 1.6 mg/L
[1]; GN4925, BBRI Pa-No. 44, GN4925, Table 7
  MIC: 6.3 mg/L
[1]; GN4925, BBRI Pa-No. 45, GN4925, Table 2
  MIC: 6.3 mg/L
[2]; 20 mg/kg
  concentration at 0.25 h: 13 µg/mL
  concentration at 0.5 h: 9 µg/mL
  concentration at 1 h: 3.7 µg/mL
[2]; 40 mg/kg
  concentration at 0.25 h: 25 µg/mL
  concentration at 0.5 h: 20 µg/mL
  concentration at 1 h: 7 µg/mL
  concentration at 2 h: 1 µg/mL
[3]
  MIC: 0.4 mg/L
[4]; lot 1, Table 5
  Mean % Relative Activity (SPBC = 100%): 179%
[4]; lot 2, Table 5
  Mean % Relative Activity (SPBC = 100%): 108%
[4]; Gram-negative (19 strains), from geometric means of MICs in Table 1
  Mean % Relative Activity (Sulbenicillin = 100%): 179%
